Assay results: patent US10925858B2, “S-nitrosoglutathione (GSNO) and GSNO reductase inhibitors for use in therapy” (MUSC FOUNDATION FOR RESEARCH DEVELOPMENT, priority 2017, dated 2021)

What was measured:
[1] = test system: CD4+ T cells (TH1, TH2, TH17, Treg); experiment: Fluorescence flow cytometry of CD4+ T cell subsets in spinal cords of EAE mice; assay type: in vivo, C57BL/6 mice; settings: EAE mice at peak of disease, 1 mg/kg/day
Protocol: Female C57BL/6 mice of 8-12 weeks of age, purchased from Jackson Laboratory, were provided with food and water ad libitum and were kept in pathogen free animal care facility of Medical University of South Carolina (MUSC) throughout the study. All procedures were conducted in accordance with accepted standards of humane care as approved by the Institutional Animal Care and Use Committee (Approved number: AR #1644). EAE was induced as described previously (Nath et al., 2009). Briefly, mice were immunized subcutaneously in the flank regions with MOG35-55 peptide (MOG; 200 μg; Peptide International) emulsified (1:1) in 100 ul complete Freund's adjuvant (CFA) on day 0 and day 7. Additionally, 300 ng of Pertussis toxin (Sigma-Aldrich, St. Louis, Mo.) was given on day 0 and day 2 by i.p. injection. Pertussis toxin used as per the standardized protocol reported by us and other investigators for the induction of EAE (Nath et al., 2009). Similarly, healthy control group received subcutaneous injection of PBS and CFA emulsion on day 0 and day 7. Clinical signs of EAE were scored by examiners blinded to experimental treatments using the following scale: 0=no clinical signs of disease; 1=piloerection and sluggish; 2=limp tail (ataxia); 2.5=ataxia with partial hind limb paralysis; 3=full paralysis of hind limb; 3.5=full paralysis of hind limb with paralysis of one fore limb; 4=full paralysis of two limbs; 4.5=moribund stage; 5=death. […] The drug treatments were continued till the termination of the study (day 41 post immunization). EAE animals without drug treatment received PBS. Likewise, healthy controls received vehicle.
Fluorescence flow cytometry analysis for each subset of CD4+ T cells (TH1, TH2, TH17, CD4+CD25+ FOXP3+ Treg, and CD4+CD25+ FOXP3− Treg) were performed based on our previous report with modification (Nath et al., 2004). Briefly, control mice, EAE mice. EAE mice treated with GSNO. […] The isolated CD4+ T cells were then resuspended with complete RPMI-media in 12-well plates (5×10^6 cells' 2 ml per well) containing MOG peptide (25 μg/ml) for 48 hrs. Following the centrifugation, the resulted supernatants were collected for ELISA for CD4+ subset specific cytokines (see below). The cell pellets were washed with cell staining solution (ebioscience, Waltham, Mass. USA) and stained with fluorescence labeled antibody specific to IFN-γ for TH1. IL-4 for TH2, IL-17 for TH17, CD25+ for total Treg. CD25+ and FOXP3+ for FOXP3+ Treg, and CD25+ and FOXP3− for FOXP3-Tregs (ebioscience, Waltham, Mass., USA). The cells were counted and analyzed using Beackman Coulter instrument (Beckman Coulter, Inc., Brea, Calif., USA).

[2] = test system: EAE mice; experiment: EAE (MOG35-55) clinical disease, GSNO vs FeTPPS; assay type: in vivo, C57BL/6J mice; settings: GSNO 1 mg/kg/i.p./day or FeTPPS 30 mg/kg/i.p./day from disease onset (day 13)
Protocol: EAE was induced as described previously (Nath et al., 2009). Animal procedures were approved by the institutional animal care and use committee of MUSC (AR #1644). Briefly, female C57BL/6J mice of 8-12 weeks of age weighing 18-22 g (The Jackson Laboratory, Bar Harbor, Me., USA) were randomly divided into four groups: 1) EAE animals treated with vehicle (EAE; n=8), 2) EAE with GSNO (1 mg/kg body weight per day; i.p.) treatment (EAE+GSNO; n=12), 3) EAE with FeTPPS (30 mg/kg body weight per day; i.p.) treatment (EAE+FeTPPS; n=8), 4) control with vehicle (Ctrl; n=8). The group size was determined by power analysis based on our previous data (Nadi et al., 2009). Then, the mice were immunized subcutaneously in the flank regions with MOG35-55 peptide (MOG; 200 ug; Peptide International) emulsified (1:1) in 100 ul complete Freund's adjuvant (CFA) CHI day 0 and day 7. […] Clinical signs of EAE were scored in animal facility in a blinded fashion to experimenter between 2 and 4 pm daily by examiners blinded to experimental treatments using the following scale: 0=no clinical signs of disease; 1=limp tail or waddling gait with tail tonicity; 2=waddling gait with limp tail (ataxia); 2.5=ataxia with partial limb paralysis; 3=full paralysis of one limb; 3.5=full paralysis of one limb with partial paralysis of second limb; 4=full paralysis of two limbs; 4.5=moribund stage; 5=death. […]

Row | Compound | number of CD4+ IFN-γ+ (TH1) cells in spinal cords [1] | number of CD4+ IL-17 (TH17) cells in spinal cords [1] | number of CD4+CD25+ FOXP3+ Treg cells in spinal cords [1] | number of CD4+CD25+ FOXP3− Treg cells in spinal cords [1] | number of TH2 cells in the CNS [1] | number of total Treg cells (CD4+CD25+) in spinal cords [1] | efficacy against clinical disease of EAE [2]
1 | Cc1cc(C(N)=O)ccc1-n1c(CCC(=O)O)ccc1-c1ccc(-n2ccnc2)cc1 [N6022, reference compound] | reduced | reduced | increased | increased | increased | – | –
2 | N[C@@H](CCC(=O)N[C@@H](CSN=O)C(=O)NCC(=O)O)C(=O)O [GSNO, S-nitrosoglutathione] | no obvious effect | significantly decreased | without altering | significantly increased | – | increased | great efficacy
3 | Cl.O=S(=O)([O-])c1ccc(-c2c3nc(c(-c4ccc(S(=O)(=O)O)cc4)c4ccc([nH]4)c(-c4ccc(S(=O)(=O)O)cc4)c4nc(c(-c5ccc(S(=O)(=O)O)cc5)c5ccc2[nH]5)C=C4)C=C3)cc1.[Fe] [FeTPPS, 5,10,15,20-Tetrakis(4-sulfonatophenyl)porphyrinato Iron (III), Cl, reference compound] | – | – | – | – | – | – | significant efficacy but to a lower degree than GSNO treatment
